Key:
isolated mouse islets = assay: GSIS test in isolated mouse islets; type: cell-based; details: 24 h; 2.5 or 16.7 mM glucose
Experimental: Mice (6 in total) were euthanized by cervical dislocation; the mouse torso was saturated with 70% ethanol. The abdominal cavity was opened completely from anus to diaphragm. The body and tail of the pancreas were removed and separated from fat and large vessels. The pancreas was washed once with HBSS solution and cut into small pieces of approximately 2×3 mm with a scissors. After an additional wash with HBSS solution, the pieces of pancreas were placed in two 50 ml Falcon tubes containing 4 ml of a freshly prepared solution of collagenase (2 mg/ml). After vigorous shaking at 37° C. for approximately 20 min, the collagenase digestion was interrupted by adding 45 ml of ice-chilled HBSS solution. The digested pancreatic tissue was spinned down at 330×g for 3 minutes. Supernatant was removed again and an additional 45 mL of “islet media” was added and spinned down at 330×g for 3 minutes. The histopaque was decanted and the tubes were inverted to drain on an absorbent paper towel for 1 min. The pellet was resuspended in 20 ml for each tube in cold 30% Ficoll solution. […]
Frozen islets medium or lysates were thawed on ice and diluted with water (a typical dilution for the lysate was 300× and for the supernatant—5×). […] The signal was determined by a SpectraMax M5 spectrophotometer. The concentrations of insulin in the samples were normalized by the total protein determined by the BCA assay.

INS-1E cells [1] = assay: Glucose-stimulated insulin secretion (GSIS) in INS-1E cells; type: cell-based, rat; details: INS-1E cells; 2.5 mM or 16.7 mM glucose
Experimental: FIG. 3, comprising FIG. 3A through FIG. 3D, depicts the evaluation of the biological activity of HSA-112 in INS-1E cells. FIG. 3A depicts a dose-response analysis of the effect of HSA-112 on the rate of insulin secretion in INS-1E cells. The INS-1E cells were grown and treated with increasing doses of HSA-112 for 24 h, as described in Methods. Subsequently, cells were mixed with different concentrations of HSA-112, as indicated in the graph (red columns), PEG2000 (green columns), and free peptide (blue columns) and were seeded in 12-well plates. After 24 h the cells were taken to a GSIS in the presence of 2.5 mM (weak color bars) or 16.7 mM (strong color bars) glucose. FIG. 3B depicts the time-course analysis of the effect of HSA-112 on the rate of insulin secretion in INS-1E cells. The INS-1E cells were prepared for the experiment as described above with 50 μM of HSA-112, PEG2000, or free peptide. After incubation, as indicated in the graph, the cells were taken to a GSIS as described above. FIG. 3C depicts the cell protective effect of HSA-112 under oxidative stress conditions. Cells were prepared for the experiment as described in Methods. Trolox was used as a positive control at a concentration of 100 μM. The oxidative stress was induced in the tissue culture, as described in Methods. Standard MTT analysis (also described in Methods) was used for evaluating the effect of HSA-112 on cell viability. FIG. 3D depicts INS-1E cell proliferation. Cells were prepared for the experiment as described above. After 24 h the cells were colored by trypan blue and counted as described in Methods *p<0.05, n=6. MEAN±SE.
FIG. 7, comprising FIG. 7A through FIG. 7G, depicts the evaluation of the biological activity of HSA-28P in INS-1E cells. FIG. 7A depicts dose-response analysis of the effect of HSA-28P on the rate of insulin secretion in INS-1E cells. The INS-1E cells were grown and trypsinized as described in Methods. Subsequently, cells were mixed with the indicated concentrations of HSA-28P (red columns), non-relevant peptide nanoparticles (NRPNP, green columns), and naked nanoparticles (NP, blue columns) and were seeded in 12-well plates. After 24 h the cells were taken to a GSIS in the presence of 2.5 mM (weak color bars) or 16.7 mM (strong color bars) glucose. FIG. 7B depicts time-course analysis of the effect of HSA-28P on the rate of insulin secretion in INS-1E cells. The INS-1E cells were prepared for the experiment as described above with 1.34 μM of both HSA-28P or NRPNP, and 0.76 μg/ml of NP. After incubation for the time indicated in the graph, the cells were taken to a GSIS as described in Methods. FIG. 7C depicts the measurement of insulin content. The RIA-assay was performed for INS-1E lysates. FIG. 7D depicts the Effect of HSA-28P on the cells viability under oxidative stress conditions. INS-1E cells were incubated for 24 h with a medium supplemented with HSA-28P (3 μM), or HSA-28P1/2 (1.5 μM), or NPs covered by phantom random peptide (PPNP, 3 μM), or NP (0.76 μg/ml), or HSA-28 (3 μM) and trolox, as a positive antioxidant control (1 mM). After the incubation time, 50 mU/ml of glucose oxidase (GO) was added for an additional 1.15 h. Upon completion of the experiments, a standard MTT assay was conducted as described in Methods. Cell viability is presented as a percentage in comparison to non-treated cells. FIG. 7E depicts the effect of HSA-28P on the cell proliferation rate. Experiments were conducted on INS-1E cells that were seeded in 6-well plates. INS-1E cells were treated as described in Panel D. Cells were detached by trypsin and counted as described in Methods and then were visualized with a Cells Sense Live Imaging microscope. FIG. 7F depicts light microscope images of untreated cells. FIG. 7G depicts light microscope images of cells that were treated with HSA-28P. *p<0.05, n=3. MEAN±SE. […]

INS-1E cells [2] = assay: Cell counting (trypan blue) / proliferation and cluster formation; type: cell-based, rat; details: 24 h
Experimental: FIG. 7, comprising FIG. 7A through FIG. 7G, depicts the evaluation of the biological activity of HSA-28P in INS-1E cells. FIG. 7A depicts dose-response analysis of the effect of HSA-28P on the rate of insulin secretion in INS-1E cells. The INS-1E cells were grown and trypsinized as described in Methods. Subsequently, cells were mixed with the indicated concentrations of HSA-28P (red columns), non-relevant peptide nanoparticles (NRPNP, green columns), and naked nanoparticles (NP, blue columns) and were seeded in 12-well plates. After 24 h the cells were taken to a GSIS in the presence of 2.5 mM (weak color bars) or 16.7 mM (strong color bars) glucose. FIG. 7B depicts time-course analysis of the effect of HSA-28P on the rate of insulin secretion in INS-1E cells. The INS-1E cells were prepared for the experiment as described above with 1.34 μM of both HSA-28P or NRPNP, and 0.76 μg/ml of NP. After incubation for the time indicated in the graph, the cells were taken to a GSIS as described in Methods. FIG. 7C depicts the measurement of insulin content. The RIA-assay was performed for INS-1E lysates. […] INS-1E cells were treated as described in Panel D. Cells were detached by trypsin and counted as described in Methods and then were visualized with a Cells Sense Live Imaging microscope. […]
Cells were detached by trypsin and colored by Trypan blue. Only uncolored cells were counted. […]

INS-1E cells [3] = assay: Insulin secretion of INS-1E cells after 5 h incubation with peptidomimetic agent; type: cell-based, rat; details: INS-1 β cells
Experimental: FIG. 22, comprising FIG. 22A through FIG. 22C, depicts experimental results of incubation of INS1E cells with peptidomimetic agent. A peptidomimetic agent was designed to mimic neuroligin's binding site for neurexin. Monomers and dimers had no effect on insulin secretion. Multiple dimers were conjugated to PEG-2000 to simulate clustering (reagent HSA-112). Dimers were also clustered on nanoparticles (HSA-637). FIG. 22A depicts INS-1E cells were incubated for 5 h with HSA-112 (blue columns) or HSA-637 (purple) at different concentrations or with vehicle alone (black), washed, and then tested for insulin secretion at 3 mM glucose (striped columns) or at 20 mM glucose (solid columns). […] FIG. 22B depicts a time course: insulin secretion was analyzed after the number of hours indicated following a 5 h incubation with 100 μM HSA-112 (blue), 500 nM HSA-637 (purple) or vehicle alone (black). Incubations were with 3 mM glucose (striped columns) or 20 mM glucose (solid columns). FIG. 22C depicts microscopy where INS-1E cells were incubated with HSA-637 conjugated to a fluorescent dye (Cy5, red) and then washed. Membranes were stained with Alexa Fluor 488 (green). For better visualization, microscopy was in hypotonic saline causing the INS-1E cells to swell and become more rounded.

Question: Which “effect on GSIS in isolated mouse islets” value (isolated mouse islets) does the source give for N=C(N)NCCC[C@H](N)C(=O)O [L-arginine] here?
Answer: significantly raised GSIS

Question: How did the “effect on GSIS” value (INS-1E cells [1]) turn out when “QQGEFLNYD [HSA-28, short NL-2 mimetic peptide derived from the NL-4/NX-1 crystal complex]” was run?
Answer: did not increase the GSIS

Question: And the “amount of cells / proliferation rate” value (INS-1E cells [2])?
Answer: has not shown any effect on the proliferation rate

Question: What about the “effect on insulin secretion” value (INS-1E cells [3]) of the same compound?
Answer: had no effect
